Assay results from publication PMC3677961 (Chemical biology & drug design, 2008).

Key:
[1] = system: L. donovani axenic amastigotes; conditions: cited from earlier work
T. b. brucei = conditions: cited from earlier work
mammalian tubulin = conditions: read-out: IC50 against mammalian tubulin; cited from earlier work
[2] = target: T1, colchicine site of mammalian tubulin (Sus scrofa, UniProt P02550+P02554); conditions: cited from earlier work
[3] = phase I and phase II clinical trials; cited from earlier work
[4] = cited from earlier work
[5] = target: T1, colchicine site of mammalian tubulin; experiment: Competition with MTPT for the colchicine site; type: binding; conditions: 5 μM mammalian tubulin, 5 μM MTPT
[6] = system: L. donovani axenic amastigotes; type: cell-based; conditions: Leishmania donovani, read-out: IC50 versus L. donovani axenic amastigotes
Vero cells = experiment: Vero cell cytotoxicity; type: cell-based, African green monkey; conditions: Chlorocebus sabaeus, read-out: IC50 versus Vero Cells
LNCaP = experiment: SRB growth inhibition assay, LNCaP prostate cancer cell line; type: cell-based; conditions: Homo sapiens, 96 h, read-out: Cancer cell line IC50, LNCaP
PC3 = experiment: SRB growth inhibition assay, PC-3 prostate cancer cell line; type: cell-based; conditions: Homo sapiens, PC-3, 96 h, read-out: Cancer cell line IC50, PC3
HT29 = experiment: SRB growth inhibition assay, HT-29 colon cancer cell line; type: cell-based; conditions: Homo sapiens, HT-29, 96 h, read-out: Cancer cell line IC50, HT29
TSU-Pr1 = experiment: SRB growth inhibition assay, TSU-Pr1 bladder cancer cell line; type: cell-based; conditions: Homo sapiens, TSU-Pr1, 96 h, read-out: Cancer cell line IC50, TSU-Pr1
PPC1 = experiment: SRB growth inhibition assay, PPC-1 prostate cancer cell line; type: cell-based; conditions: Homo sapiens, PPC-1, 96 h, read-out: Cancer cell line IC50, PPC1
MCF7 = experiment: SRB growth inhibition assay, MCF-7 breast cancer cell line; type: cell-based; conditions: Homo sapiens, MCF7, 96 h, read-out: Cancer cell line IC50, MCF7

## CCCN(CCC)c1c([N+](=O)[O-])cc(S(=O)(=O)Nc2ccccc2)cc1[N+](=O)[O-] [Compound 2, N1-phenyl-3,5-dinitro-N4,N4-di-n-propylsulfanilamide]
[1]
  Activity against Leishmania donovani axenic amastigotes (in words): low micromolar activity
T. b. brucei
  Activity against Trypanosoma brucei bloodstream forms (in words): mid-nanomolar activity

## COc1ccc(S(=O)(=O)Nc2cccnc2Nc2ccc(O)cc2)cc1 [Compound 28]
Mammalian tubulin
  IC50: 2200 nM
[2]
  Binding site on mammalian tubulin: bind to the colchicine site
[3]
  Oral bioavailability: orally bioavailable

## COc1ccc(NS(=O)(=O)c2c(F)c(F)c(F)c(F)c2F)cc1F [Compound 29]
Mammalian tubulin
  IC50: ~2000 nM
[4]
  Toxicity in phase II clinical trials: low levels of toxicity
[2]
  Binding site on mammalian tubulin: bind to the colchicine site

## COc1ccc(NS(=O)(=O)c2c(F)c(F)c(F)c(F)c2F)cc1NC(N)=O [Compound 30]
Mammalian tubulin
  IC50: 2100 nM

## COc1ccc(CCc2cc(OC)c(OC)c(OC)c2)cc1O [Dihydrocombetastatin A4, dihydrocombretastatin A4]
[5]; 2 μM competitor
  Inhibition (%) of MTPT binding in presence of competitors: 30 ± 1%
[5]; 20 μM competitor
  Inhibition (%) of MTPT binding in presence of competitors: 69 ± 2%
[5]; 50 μM competitor
  Inhibition (%) of MTPT binding in presence of competitors: 74 ± 2%

## N=C(N)c1ccc(OCCCCCOc2ccc(C(=N)N)cc2)cc1 [Pentamidine]
[6]
  IC50: 3200 ± 1500 nM

## COc1cc([C@@H]2c3cc4c(cc3[C@H](O)[C@H]3COC(=O)[C@H]23)OCO4)cc(OC)c1OC [Podophyllotoxin]
Vero cells
  IC50: 50 ± 30 nM

## CC[C@]1(O)C[C@@H]2CN(CCc3c([nH]c4ccccc34)[C@@](C(=O)OC)(c3cc4c(cc3OC)N(C)[C@H]3[C@@](O)(C(=O)OC)[C@H](OC(C)=O)[C@]5(CC)C=CCN6CC[C@]43[C@@H]65)C2)C1 [Vinblastine]
LNCaP
  IC50: 3.4 ± 0.9 nM
PC3
  IC50: 1.4 ± 0.3 nM
HT29
  IC50: 2.4 ± 0.2 nM
TSU-Pr1
  IC50: 1.6 ± 0.08 nM
PPC1
  IC50: 1 ± 0.4 nM
MCF7
  IC50: 1.3 ± 0.4 nM
